Assay [1] concerns U3013M GSCs intracranial tumor. As to the kind of experiment: Mouse xenograft experiment, intracranial infusion by osmotic minipump. The assay is classed as in vivo, Nod/SCID mice. The following applies: 15 μM, 0.5 μL/hr, one week, started 6 weeks after grafting, vs vehicle. The protocol: The ability of S10 to attenuate tumor progression was next examined in a mouse model for human GBM. Nod/SCID mice received intracranial injections of 100 000 U3013M GSCs and the resulting tumor was allowed to develop for 7 weeks. […] Tumors were highly immunoreactive for human Nestin (hNestin) and human GFAP (hGFAP). S10 (15 μM, 0.5 μL/hr) or vehicle (DMSO) was administered into the site of original cell deposit by an osmotic minipump 6 weeks after cells were grafted. Animals were collected for histological analysis following one week of treatment. […] A massive LAMP1 staining was observed within the tumor cell mass following one week S10 administration, with most or all cells displaying immunoreactivity while mice receiving vehicle were devoid of LAMP1.
GSCs were dissociated with trypsin, resuspended in PBS and kept on ice and the viability of cells were checked using trypan blue before and after the experiment. Surgery in mice was performed using sterile techniques, 6 to 8 week old NOD-SCID mice were anaesthetized using a mixture of isoflurane and oxygen. […] The mice were monitored for weight loss and signs of distress. […]

A further assay deals with Caspase-3 and Caspase-7. Kind of assay: Caspase-3 and Caspase-7 enzymatic activity in GSC. The assay is classed as cell-based, human. The note with it: 5-30 μM, 2 to 600 minutes. How it is done:
A distinctive feature of apoptosis is the rapid loss of ATP associated with decoupling of the respiratory chain. Death of GSCs was therefore examined in the presence of the apoptosis inhibitor Q-VAD. […] However, Q-VAD only modestly rescued S10 treated cells from death at 3 and 7 hrs. […] Caspase-3 and Caspase-7 enzymatic activity was measured at 2, 15, 30, 60, 120, 120, 240, 360 and 600 minutes after addition of S10 at increasing concentrations from 5-30 μM. […] The rapid depletion of ATP by S10 led us to therefore examine the mitochondria. The accumulation of tetramethylrhodamine ethyl ester (TMRE) in mitochondria and […] is driven by their membrane potential. TMRE incorporation in mitochondria was largely unaffected by S10. […]
For measuring cell viability, cytotoxicity and apoptosis in GSC/fibroblast/mGlia cells were grown in 384-well microtiter plates using procedure described above. […] Cell viability, cytotoxcity and apoptosis were measured using CellTiter-Glo® Luminescent Cell Viability Assay (Promega), CytoTox-Glo Cytotoxicity Assay and […], according to manufacturer's instructions. […] Luminescence was measured using a Victor3 FA (Perkin Elmer) microtiterplate reader and the level of released Caspase 3/7 quantified relative to control using GraphPad Prism (v6.02) software.

Assay [2] concerns glioma stem cell line U3013. As to the kind of experiment: In vitro cancer cell and CSC viability assay (ATP quantification, CellTiterGlo). The note with it: Homo sapiens; 3000 cells/cm2, after 24 hours; read-out: EC50, viability of GSCs. The assay is classed as cell-based. A general note: Cellular ATP, detected with luciferase, serves as a proxy for viable cell number.

This is an account of results in US20160214958A1, “COMPOUNDS AND USE FOR TREATING CANCER” (GLIONOVA AB, priority 2013, published 2016).

As a reminder, the EC50 is the concentration giving half of the maximal effect.

Turning to `OC(c1cc(-c2ccc(Cl)cc2)nc2ccccc12)C1CCCCN1` (racemic) [Compound S10, (2-(4-chlorophenyl)quinolin-4-yl)(piperidin-2-yl)methanol], in assay [1], the “loss of brain tissue by necrosis” value was “markedly and significantly reduced”; the “tumor infiltration and area of hGFAP and hNestin immunoreactivity” value was “significantly reduced”. In the assay on Caspase-3 and Caspase-7, the “caspase activity relative to DMSO control” value was “no effect on caspase activity”. In addition, in assay [2], the EC50 came to 2360 nM.
